Experimental findings from the supplement of paper PMC12076712 are described below.

Experiment in all cases: pIC50, kinobeads binding competition
For one assay, the target named is CDK6 (UniProt Q00534). A digest of the protocol: (§1)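 pIC50 was obtained by fitting fold changes against vehicle to logistic dose-response curves with the R drc package, using biological duplicates. Kinobeads-bound proteins were digested and measured by TMT10 LC-MS/MS. Before this, either living Jurkat cells received nine compound concentrations (top 30 μM, 1:4 steps) for 60 min at 37 °C prior to lysis, or Jurkat lysate or a 1:1:1:1 HEK293/K-562/HepG2/placenta lysate mix received nine concentrations (top 30 μM, 1:5 steps) for 60 min at 4 °C.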
Chain of CDK6 (Q00534 whole entry): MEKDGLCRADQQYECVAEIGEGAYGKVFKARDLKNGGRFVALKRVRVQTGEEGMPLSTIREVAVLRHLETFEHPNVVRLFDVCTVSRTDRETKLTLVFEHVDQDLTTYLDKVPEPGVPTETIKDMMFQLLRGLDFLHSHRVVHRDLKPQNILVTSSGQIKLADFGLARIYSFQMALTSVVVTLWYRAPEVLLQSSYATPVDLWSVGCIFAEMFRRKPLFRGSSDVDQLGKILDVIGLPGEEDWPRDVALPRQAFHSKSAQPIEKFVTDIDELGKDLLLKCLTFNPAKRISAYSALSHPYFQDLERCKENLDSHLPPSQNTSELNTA

The next assay deals with DYRK1A (UniProt Q13627). A digest of the protocol: as §1
Another assay has as its target Fyn (UniProt P06241). A digest of the protocol:
as §1

A further assay concerns the target MAST4 (UniProt O15021). A digest of the protocol:
as §1

The target in another assay is PAK4 (UniProt O96013). The essentials:
as §1

A further assay has as its target T1, PKMYT1 (UniProt Q99640).
T1 sequence (whole entry): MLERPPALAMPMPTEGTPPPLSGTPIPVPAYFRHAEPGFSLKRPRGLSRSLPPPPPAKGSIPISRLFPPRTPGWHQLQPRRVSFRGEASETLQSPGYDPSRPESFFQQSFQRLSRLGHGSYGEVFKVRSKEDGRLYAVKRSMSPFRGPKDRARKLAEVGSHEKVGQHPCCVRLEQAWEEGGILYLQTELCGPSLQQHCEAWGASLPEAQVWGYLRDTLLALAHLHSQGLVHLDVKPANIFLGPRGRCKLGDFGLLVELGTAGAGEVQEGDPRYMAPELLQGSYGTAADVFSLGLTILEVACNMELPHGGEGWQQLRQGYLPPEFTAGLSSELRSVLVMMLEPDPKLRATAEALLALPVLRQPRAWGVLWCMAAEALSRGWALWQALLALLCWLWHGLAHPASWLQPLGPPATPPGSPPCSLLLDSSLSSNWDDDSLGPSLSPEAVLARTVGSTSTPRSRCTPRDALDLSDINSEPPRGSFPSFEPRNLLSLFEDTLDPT
A digest of the protocol: as §1

The next assay deals with PRKCB (UniProt P05771). A digest of the protocol: as §1
Chain of PRKCB (P05771 whole entry, looked up): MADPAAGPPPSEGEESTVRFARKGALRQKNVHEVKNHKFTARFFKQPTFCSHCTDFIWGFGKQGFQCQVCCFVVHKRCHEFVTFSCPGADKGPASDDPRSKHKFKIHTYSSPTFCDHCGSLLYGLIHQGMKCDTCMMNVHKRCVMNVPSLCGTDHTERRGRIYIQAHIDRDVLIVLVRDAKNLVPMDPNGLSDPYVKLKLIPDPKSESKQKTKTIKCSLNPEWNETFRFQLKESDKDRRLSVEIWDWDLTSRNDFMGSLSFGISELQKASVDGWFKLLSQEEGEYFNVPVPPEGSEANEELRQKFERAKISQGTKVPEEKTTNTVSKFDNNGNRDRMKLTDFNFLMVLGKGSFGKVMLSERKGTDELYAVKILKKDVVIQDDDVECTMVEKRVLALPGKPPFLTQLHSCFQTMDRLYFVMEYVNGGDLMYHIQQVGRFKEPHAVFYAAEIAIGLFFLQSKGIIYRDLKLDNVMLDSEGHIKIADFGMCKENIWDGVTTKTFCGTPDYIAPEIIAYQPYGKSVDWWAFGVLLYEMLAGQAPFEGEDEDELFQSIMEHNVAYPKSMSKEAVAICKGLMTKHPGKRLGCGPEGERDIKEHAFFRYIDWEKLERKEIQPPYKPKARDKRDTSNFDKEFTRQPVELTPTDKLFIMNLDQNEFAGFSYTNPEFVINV
The next assay concerns the target T2, PRKD3 (UniProt O94806).
T2 sequence (whole entry): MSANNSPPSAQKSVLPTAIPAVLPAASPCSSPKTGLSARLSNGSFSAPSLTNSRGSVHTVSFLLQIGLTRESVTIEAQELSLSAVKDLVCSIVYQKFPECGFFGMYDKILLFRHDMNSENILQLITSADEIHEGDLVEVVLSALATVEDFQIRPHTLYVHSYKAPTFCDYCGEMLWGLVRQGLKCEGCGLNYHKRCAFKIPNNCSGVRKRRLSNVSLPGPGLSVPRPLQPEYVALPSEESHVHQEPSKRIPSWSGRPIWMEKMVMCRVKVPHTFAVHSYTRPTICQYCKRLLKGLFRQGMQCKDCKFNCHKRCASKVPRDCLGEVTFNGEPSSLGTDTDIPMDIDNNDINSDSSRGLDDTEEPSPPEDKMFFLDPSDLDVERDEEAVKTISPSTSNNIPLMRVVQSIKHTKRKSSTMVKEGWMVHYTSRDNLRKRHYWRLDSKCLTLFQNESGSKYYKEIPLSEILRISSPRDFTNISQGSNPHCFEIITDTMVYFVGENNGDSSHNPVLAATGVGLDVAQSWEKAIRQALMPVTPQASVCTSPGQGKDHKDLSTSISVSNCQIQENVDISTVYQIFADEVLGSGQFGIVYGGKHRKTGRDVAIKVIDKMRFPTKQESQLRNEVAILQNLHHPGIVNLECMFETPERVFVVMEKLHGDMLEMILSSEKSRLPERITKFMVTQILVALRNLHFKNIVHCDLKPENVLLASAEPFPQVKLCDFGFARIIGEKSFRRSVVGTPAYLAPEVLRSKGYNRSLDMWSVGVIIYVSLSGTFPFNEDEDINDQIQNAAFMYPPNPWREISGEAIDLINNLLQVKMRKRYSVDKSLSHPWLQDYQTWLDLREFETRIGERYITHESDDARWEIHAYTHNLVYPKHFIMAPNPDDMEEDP
A digest of the protocol:
as §1

In a further assay the target is T3, TP53RK (UniProt Q96S44).
T3 sequence (whole entry): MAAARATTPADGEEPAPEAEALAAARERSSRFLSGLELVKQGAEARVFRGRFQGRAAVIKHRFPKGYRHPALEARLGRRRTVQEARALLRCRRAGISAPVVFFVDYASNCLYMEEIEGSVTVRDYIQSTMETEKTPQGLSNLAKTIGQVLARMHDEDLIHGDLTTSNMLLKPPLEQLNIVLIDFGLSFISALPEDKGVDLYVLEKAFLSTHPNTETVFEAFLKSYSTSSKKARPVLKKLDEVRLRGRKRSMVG
The essentials:
as §1

Another assay has as its target T4, UniProt O14920.
T4 sequence (whole entry): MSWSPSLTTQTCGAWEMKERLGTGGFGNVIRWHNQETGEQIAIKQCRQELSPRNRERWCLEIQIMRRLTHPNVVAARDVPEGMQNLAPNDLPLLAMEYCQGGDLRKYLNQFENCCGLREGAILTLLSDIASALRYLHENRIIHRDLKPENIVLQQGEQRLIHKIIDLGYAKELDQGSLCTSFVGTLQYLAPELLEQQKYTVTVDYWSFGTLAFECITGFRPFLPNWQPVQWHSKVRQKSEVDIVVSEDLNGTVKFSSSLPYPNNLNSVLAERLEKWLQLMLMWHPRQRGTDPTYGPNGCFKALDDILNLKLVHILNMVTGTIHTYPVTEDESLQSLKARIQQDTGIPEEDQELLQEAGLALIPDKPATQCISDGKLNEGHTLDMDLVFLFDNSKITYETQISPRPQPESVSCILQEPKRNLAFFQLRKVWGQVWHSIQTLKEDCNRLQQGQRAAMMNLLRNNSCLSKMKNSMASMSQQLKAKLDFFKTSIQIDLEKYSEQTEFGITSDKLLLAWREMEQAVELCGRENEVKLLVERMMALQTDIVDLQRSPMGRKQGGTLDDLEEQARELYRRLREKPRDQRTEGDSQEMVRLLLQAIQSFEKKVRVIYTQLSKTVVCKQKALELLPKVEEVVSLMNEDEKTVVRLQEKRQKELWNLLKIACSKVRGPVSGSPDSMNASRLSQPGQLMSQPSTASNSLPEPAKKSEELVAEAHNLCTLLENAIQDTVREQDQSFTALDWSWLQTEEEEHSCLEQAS
The essentials: as §1

Structures are written as SMILES.

Chain of PAK4 (O96013 whole entry, looked up): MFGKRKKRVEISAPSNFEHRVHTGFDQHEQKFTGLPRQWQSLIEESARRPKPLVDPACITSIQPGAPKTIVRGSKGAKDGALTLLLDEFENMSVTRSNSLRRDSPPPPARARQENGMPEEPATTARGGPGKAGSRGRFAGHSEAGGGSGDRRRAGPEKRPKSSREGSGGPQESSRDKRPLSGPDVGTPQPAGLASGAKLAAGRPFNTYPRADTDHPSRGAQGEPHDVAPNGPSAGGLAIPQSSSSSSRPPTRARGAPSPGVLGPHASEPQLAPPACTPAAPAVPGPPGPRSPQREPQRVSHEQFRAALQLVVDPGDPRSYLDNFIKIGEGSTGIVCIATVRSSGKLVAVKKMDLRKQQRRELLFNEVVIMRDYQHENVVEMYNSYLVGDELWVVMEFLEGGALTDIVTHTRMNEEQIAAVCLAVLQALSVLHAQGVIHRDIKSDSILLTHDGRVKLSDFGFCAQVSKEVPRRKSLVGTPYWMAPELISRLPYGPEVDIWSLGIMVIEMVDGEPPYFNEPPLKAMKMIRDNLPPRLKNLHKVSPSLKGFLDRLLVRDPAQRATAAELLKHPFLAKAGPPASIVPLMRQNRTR
Chain of MAST4 (O15021 whole entry): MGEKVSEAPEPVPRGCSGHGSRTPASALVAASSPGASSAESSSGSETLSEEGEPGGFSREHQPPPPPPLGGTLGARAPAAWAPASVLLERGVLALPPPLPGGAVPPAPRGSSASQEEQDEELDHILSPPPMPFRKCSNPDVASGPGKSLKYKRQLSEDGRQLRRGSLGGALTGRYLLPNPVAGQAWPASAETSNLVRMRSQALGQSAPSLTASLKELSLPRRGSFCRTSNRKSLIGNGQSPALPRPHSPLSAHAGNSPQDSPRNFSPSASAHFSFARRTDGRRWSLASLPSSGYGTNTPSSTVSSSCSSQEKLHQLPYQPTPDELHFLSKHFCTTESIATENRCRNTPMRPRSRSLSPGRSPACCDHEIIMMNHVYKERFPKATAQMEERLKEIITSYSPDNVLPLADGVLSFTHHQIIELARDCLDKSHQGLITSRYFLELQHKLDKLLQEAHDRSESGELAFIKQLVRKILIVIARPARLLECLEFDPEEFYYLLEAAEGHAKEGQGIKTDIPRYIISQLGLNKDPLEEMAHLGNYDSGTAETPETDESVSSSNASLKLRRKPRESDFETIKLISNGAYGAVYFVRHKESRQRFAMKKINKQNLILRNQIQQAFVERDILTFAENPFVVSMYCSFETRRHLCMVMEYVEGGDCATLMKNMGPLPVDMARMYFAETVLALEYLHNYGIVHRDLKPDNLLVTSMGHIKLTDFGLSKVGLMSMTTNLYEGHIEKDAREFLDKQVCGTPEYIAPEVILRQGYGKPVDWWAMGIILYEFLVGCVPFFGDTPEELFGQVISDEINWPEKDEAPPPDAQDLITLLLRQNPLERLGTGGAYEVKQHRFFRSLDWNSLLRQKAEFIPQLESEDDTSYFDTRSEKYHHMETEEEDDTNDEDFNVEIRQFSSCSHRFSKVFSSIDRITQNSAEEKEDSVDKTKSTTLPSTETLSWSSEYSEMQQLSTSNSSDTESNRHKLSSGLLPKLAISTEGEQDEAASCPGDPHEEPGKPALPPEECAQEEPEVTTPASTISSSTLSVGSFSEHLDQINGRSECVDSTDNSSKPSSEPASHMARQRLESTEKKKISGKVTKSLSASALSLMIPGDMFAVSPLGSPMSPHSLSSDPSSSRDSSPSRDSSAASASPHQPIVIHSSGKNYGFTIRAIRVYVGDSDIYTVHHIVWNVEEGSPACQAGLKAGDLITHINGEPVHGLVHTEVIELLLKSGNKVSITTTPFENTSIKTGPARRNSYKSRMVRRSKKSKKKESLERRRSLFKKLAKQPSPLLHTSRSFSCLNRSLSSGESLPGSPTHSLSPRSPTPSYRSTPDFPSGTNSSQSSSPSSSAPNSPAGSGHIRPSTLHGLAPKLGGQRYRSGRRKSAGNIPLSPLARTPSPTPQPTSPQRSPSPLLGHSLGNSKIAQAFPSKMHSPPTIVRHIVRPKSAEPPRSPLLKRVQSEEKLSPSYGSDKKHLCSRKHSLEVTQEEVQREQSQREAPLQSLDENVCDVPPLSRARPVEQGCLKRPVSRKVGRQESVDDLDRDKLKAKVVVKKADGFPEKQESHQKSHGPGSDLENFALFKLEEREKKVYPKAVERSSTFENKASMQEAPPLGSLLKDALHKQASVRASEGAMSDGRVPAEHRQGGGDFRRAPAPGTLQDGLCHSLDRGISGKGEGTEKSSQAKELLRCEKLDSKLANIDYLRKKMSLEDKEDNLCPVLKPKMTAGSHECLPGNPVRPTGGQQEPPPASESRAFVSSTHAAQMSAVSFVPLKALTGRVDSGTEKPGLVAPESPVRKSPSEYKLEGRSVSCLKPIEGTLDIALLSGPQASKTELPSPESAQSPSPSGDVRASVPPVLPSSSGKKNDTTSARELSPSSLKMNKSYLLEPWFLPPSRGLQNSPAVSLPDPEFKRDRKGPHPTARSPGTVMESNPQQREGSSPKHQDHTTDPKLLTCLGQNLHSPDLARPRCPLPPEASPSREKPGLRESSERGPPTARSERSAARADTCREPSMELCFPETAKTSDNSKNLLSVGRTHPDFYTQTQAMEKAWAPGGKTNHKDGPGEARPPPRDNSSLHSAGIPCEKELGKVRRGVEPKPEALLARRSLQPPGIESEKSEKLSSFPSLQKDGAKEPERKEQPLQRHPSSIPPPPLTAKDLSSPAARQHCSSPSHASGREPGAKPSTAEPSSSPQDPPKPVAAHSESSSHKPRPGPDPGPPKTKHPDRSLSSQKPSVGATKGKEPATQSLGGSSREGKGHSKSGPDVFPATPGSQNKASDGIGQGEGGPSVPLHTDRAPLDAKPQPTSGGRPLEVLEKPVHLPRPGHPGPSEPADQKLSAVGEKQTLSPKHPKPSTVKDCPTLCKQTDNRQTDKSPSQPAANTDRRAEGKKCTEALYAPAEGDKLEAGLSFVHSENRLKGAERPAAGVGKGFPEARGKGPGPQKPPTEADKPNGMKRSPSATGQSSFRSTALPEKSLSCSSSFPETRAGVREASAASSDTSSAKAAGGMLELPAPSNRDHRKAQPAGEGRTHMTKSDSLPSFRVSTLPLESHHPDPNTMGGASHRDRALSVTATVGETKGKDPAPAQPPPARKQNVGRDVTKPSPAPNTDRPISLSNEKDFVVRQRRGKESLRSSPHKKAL
Chain of Fyn (P06241 whole entry, looked up): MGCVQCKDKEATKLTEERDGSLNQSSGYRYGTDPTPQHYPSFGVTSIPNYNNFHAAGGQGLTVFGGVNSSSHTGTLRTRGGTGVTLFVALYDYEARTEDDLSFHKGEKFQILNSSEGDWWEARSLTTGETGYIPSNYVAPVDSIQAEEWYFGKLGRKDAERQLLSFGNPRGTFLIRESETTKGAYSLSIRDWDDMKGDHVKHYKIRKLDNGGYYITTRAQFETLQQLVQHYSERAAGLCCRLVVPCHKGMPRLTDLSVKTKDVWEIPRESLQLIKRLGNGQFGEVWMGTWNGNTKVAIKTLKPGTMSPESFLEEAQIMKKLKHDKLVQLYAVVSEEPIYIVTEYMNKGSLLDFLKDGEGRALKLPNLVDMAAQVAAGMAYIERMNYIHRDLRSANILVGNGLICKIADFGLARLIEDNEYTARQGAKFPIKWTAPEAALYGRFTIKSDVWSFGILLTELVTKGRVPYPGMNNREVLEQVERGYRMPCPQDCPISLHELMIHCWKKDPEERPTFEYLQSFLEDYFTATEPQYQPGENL

As to `Cc1cc(Nc2cc(C(=O)NCCNC(=O)OC3CC/C=C/CCC3)nc(N3CCN(Cc4ccc(S(=O)(=O)F)cc4)CC3)n2)n[nH]1` (centres undefined), the pIC50 at CDK6 (cell material: Lysate mix) was below 4.52; on DYRK1A (cell material: Lysate mix), below 4.52; on Fyn (cell material: Lysate mix) it was 4.58; on MAST4 (cell material: Lysate mix) it was 4.74; on PAK4 (cell material: Lysate mix), below 4.52; on PKMYT1 (cell material: Lysate mix), below 4.52. Moreover, the pIC50 on PRKCB (cell material: Lysate mix), on PRKD3 (cell material: Lysate mix), at TP53RK (cell material: Lysate mix) and on UniProt O14920 (cell material: Lysate mix) was below 4.52 throughout.
As for `C#CCNC(=O)c1cc(Nc2cc(C3CC3)[nH]n2)nc(N2CCN(Cc3ccc(S(=O)(=O)F)cc3)CC2)n1`, the pIC50 on CDK6 (cell material: Jurkat cells) was 6.84; on CDK6 (cell material: Jurkat lysate) it was 5.43; on CDK6 (cell material: Lysate mix), 5.58; on DYRK1A (cell material: Jurkat cells), 5.41; at DYRK1A (cell material: Jurkat lysate), below 4.52; on Fyn (cell material: Jurkat cells), 5.9. The pIC50 on Fyn (cell material: Lysate mix) is 5.9; at MAST4 (cell material: Jurkat lysate), 6.46; on MAST4 (cell material: Lysate mix), 7; at PAK4 (cell material: Jurkat cells), 5.78; on PAK4 (cell material: Jurkat lysate), 5.19; at PAK4 (cell material: Lysate mix), 5.58. The pIC50 at PKMYT1 (cell material: Jurkat cells) was 5.67; on PKMYT1 (cell material: Jurkat lysate), below 4.52; at PKMYT1 (cell material: Lysate mix) it was below 4.52; on PRKCB (cell material: Jurkat cells), 5.46; at PRKCB (cell material: Jurkat lysate), below 4.52; at PRKCB (cell material: Lysate mix) it was below 4.52. Moreover, the pIC50 on PRKD3 (cell material: Jurkat cells) is 5.32; on PRKD3 (cell material: Jurkat lysate), below 4.52; on PRKD3 (cell material: Lysate mix), below 4.52; at TP53RK (cell material: Jurkat cells), below 4.52; at TP53RK (cell material: Jurkat lysate), below 4.52; on TP53RK (cell material: Lysate mix), below 4.52. Further, the pIC50 on UniProt O14920 (cell material: Jurkat cells), on UniProt O14920 (cell material: Jurkat lysate) and on UniProt O14920 (cell material: Lysate mix) was below 4.52 each time.
As to `CCNC(=O)c1cc(Nc2cc(C3CC3)[nH]n2)nc(N2CCN(Cc3ccc(S(=O)(=O)F)cc3)CC2)n1`, the pIC50 is 5.52 at CDK6 (cell material: Lysate mix); below 4.52 on DYRK1A (cell material: Lysate mix); 5.81 on Fyn (cell material: Lysate mix); 6.37 on MAST4 (cell material: Lysate mix); 5.27 on PAK4 (cell material: Lysate mix); below 4.52 at PKMYT1 (cell material: Lysate mix). The pIC50 on PRKCB (cell material: Lysate mix), on PRKD3 (cell material: Lysate mix), on TP53RK (cell material: Lysate mix) and at UniProt O14920 (cell material: Lysate mix) was below 4.52 throughout.
With `C#CCNC(=O)c1cc(Nc2cc(C)[nH]n2)nc(N2CCN(Cc3ccc(S(=O)(=O)F)cc3)CC2)n1`, the pIC50 was 5.06 on CDK6 (cell material: Lysate mix); below 4.52 at DYRK1A (cell material: Lysate mix); 5.93 on Fyn (cell material: Lysate mix); 6.06 at MAST4 (cell material: Lysate mix); 4.8 on PAK4 (cell material: Lysate mix); below 4.52 on PKMYT1 (cell material: Lysate mix). In addition, the pIC50 on PRKCB (cell material: Lysate mix), on PRKD3 (cell material: Lysate mix), on TP53RK (cell material: Lysate mix) and on UniProt O14920 (cell material: Lysate mix) was below 4.52 throughout.
For the compound `O=C(NCCNC(=O)c1cc(Nc2cc(C3CC3)[nH]n2)nc(N2CCN(Cc3ccc(S(=O)(=O)F)cc3)CC2)n1)OC1CC/C=C/CCC1` (centres undefined), the pIC50 at CDK6 (cell material: Jurkat cells) is 6.38; on CDK6 (cell material: Jurkat lysate), below 4.52; on CDK6 (cell material: Lysate mix), below 4.52; at DYRK1A (cell material: Jurkat cells), below 4.52; on DYRK1A (cell material: Jurkat lysate), below 4.52; at DYRK1A (cell material: Lysate mix) it was below 4.52. Further, the pIC50 on Fyn (cell material: Jurkat cells) is 5.1; on Fyn (cell material: Jurkat lysate), below 4.52; on Fyn (cell material: Lysate mix) it was below 4.52; at MAST4 (cell material: Jurkat cells) it was 6.3; at MAST4 (cell material: Jurkat lysate) it was 5.17; at MAST4 (cell material: Lysate mix), 5.3. For the same compound, the pIC50 at PAK4 (cell material: Jurkat cells) is 6.17; on PAK4 (cell material: Jurkat lysate) it was below 4.52; at PAK4 (cell material: Lysate mix), below 4.52; at PKMYT1 (cell material: Jurkat lysate), below 4.52; on PKMYT1 (cell material: Lysate mix) it was below 4.52; at PRKCB (cell material: Jurkat lysate), below 4.52. Also, the pIC50 at PRKCB (cell material: Lysate mix), at PRKD3 (cell material: Jurkat lysate), on PRKD3 (cell material: Lysate mix), at TP53RK (cell material: Jurkat cells), at TP53RK (cell material: Jurkat lysate) and at TP53RK (cell material: Lysate mix) was below 4.52 each time. Also, the pIC50 on UniProt O14920 (cell material: Jurkat cells), on UniProt O14920 (cell material: Jurkat lysate) and at UniProt O14920 (cell material: Lysate mix) was below 4.52 each time.
Take `CCNC(=O)c1cc(Nc2cc(C)[nH]n2)nc(N2CCN(Cc3ccc(S(=O)(=O)F)cc3)CC2)n1`: the pIC50 was 5.22 on CDK6 (cell material: Lysate mix); below 4.52 on DYRK1A (cell material: Lysate mix); 6.74 on Fyn (cell material: Lysate mix); 6.4 at MAST4 (cell material: Lysate mix); 4.7 at PAK4 (cell material: Lysate mix); below 4.52 at PKMYT1 (cell material: Lysate mix). Also, the pIC50 on PRKCB (cell material: Lysate mix), at PRKD3 (cell material: Lysate mix), at TP53RK (cell material: Lysate mix) and on UniProt O14920 (cell material: Lysate mix) was below 4.52 throughout.

What is called pIC50 is the negative decadic logarithm of the IC50, by convention in mol/L.
